Converted amounts (≈) assume the structure as drawn. Read-outs that look alike come from different tables or passages of the source. Ends that are not written are not given here. Peptide text beside a SMILES is read from it. Bounds are passed on as bounds.

The test system of experiment [1] is Escherichia coli ATCC8099. Type of experiment: cell-based. The procedure: (§1) The minimum inhibitory concentrations (MIC) of the invention peptides were determined using methods described below:
(§2) The strain was recovered, inoculated into sloped medium, and grown overnight at 37° C. Typical clone selected were grown overnight at 37° C. in LB culture, diluted in the same medium to give concentrations of about 10^4-10^5 CFU/ml. The broth dilutions were set up in a 96-well microtiter plate by putting 100 μl of LB-S in every well. Added diluted peptide to every well (10 ul per well), cultured overnight at 37° C. The next day, the plates were scored for growth in the wells, and the MIC determined (In Yup Park et al.; FEBS Letters; 437 (1998) 258-262).

In experiment [2] the test system is Micrococcus lysoleikticus S1.634. Type of experiment: cell-based. On the procedure: as §1, §2
The subject of experiment [3] is Pseudomonas aeruginosa CMCC10104. Type of experiment: cell-based. On the procedure:
as §1, §2

Experiment [4] relates to Klebsiella pneumoniae CMCC46117. Type of experiment: cell-based. The procedure:
as §1, §2

Experiment [5] concerns Saccharomyces cerevisiae ATCC9736. Type of experiment: cell-based. The procedure: as §1, §2
Experiment [6] has as its system Bacillus pumilus CMCC63202. Type of experiment: cell-based. The procedure: as §1, §2
Experiment [7] has as its system Staphylococcus aureaus CMCC26003. Type of experiment: cell-based. The procedure: as §1, §2
In experiment [8] the test system is Candida albicans ATCC10231. Type of experiment: cell-based. The procedure:
as §1, §2

For experiment [9], the system named is Micrococcus lutea CMCC28001. Type of experiment: cell-based. On the procedure:
as §1, §2

Experiment [10] has as its system LOVO colon cancer cell.
Description: (§3) To determine the inhibitory activity of the peptides against tumor cells, a MTT colorimetric assay was performed. Fifty percent inhibitory concentrations of the antimicrobial peptides against tumor cells and normal fibroblasts were determined. Tumor cell K562 (human chronic myeloid leukemia cell), Bcap-37 (human breast cancer cell), QGY-7703 (human hepatocellular carcinoma cell), LOVO colon cancer cell, and mouse NIH-3T3 fibroblast were selected. These cells were provided by the College of Life Sciences, Fudan University. Cells were grown in RPMI1-1640, containing 10% inactivated calf serum. Cells were transferred into the 96-well plate at 2*10^4 cells/well, and 150 μl was added in each well. After the 96-well plate were incubated overnight at 37, in 5% carbon dioxide, 20 μl diluted peptide solution was added to each well, then incubated for 3 days, 20 μl MTT solution was added to each well, and incubated at 37° C. for 4 hours, 40 μl, 002M HCl solution containing 20% SDS was added to each well to solve the purple crystal, and incubated overnight at 37° C. The absorbance at 570 nm was determined.
Experiment [11] concerns Bacillus subtilis DB430. The experiment in a line: MIC assay, 96-well microtiter plate. Type of experiment: cell-based. The following applies: Bacillus subtilis DB430 (G+). On the procedure: as §1, §2
In experiment [12] the test system is CMCC50094. The experiment is described as follows: MIC assay, 96-well microtiter plate. Type of experiment: cell-based. The following applies: B Subacute sclerosing panencephalitis CMCC50094 (G−). The procedure: as §1, §2
The test system of experiment [13] is QGY-7703 (human hepatocellular carcinoma cell).
Description: as §3
In experiment [14] the test system is mouse NIH-3T3 fibroblast.
Description: as §3
For experiment [15], the system named is K562 (human chronic myeloid leukemia cell).
Description: as §3
Experiment [16] relates to Bcap-37 (human breast cancer cell).
Description: as §3
In experiment [17] the test system is S. aureus CMCC26003. Type of experiment: in vivo, Kunming mouse. Conditions: for Inhibitory rate: S. aureus infected mice. On the procedure:
The infection model was Staphylococcus aureus infection in the Kunming mouse.
S. aureus CMCC26003 was cultured overnight, with moderate agitation, in Veal Infusion broth (Difco) and diluted in broth containing 5% hog gastric mucin (Difco). Male Kunming mice weighing approximately 20 grams were infected intraperitoneally with 10^6-10^7 viable cells. There were 3 mice in each treatment group. Antimicrobial peptide GK-1 was administered intravenously (in 0.1 ml 5% dextrose for injection), within 10 minutes of infection. Vancomycin was administered subcutaneously.

A word on the MIC: it is the lowest concentration that inhibits growth of the organism. Low values mean a more susceptible organism, high ones a less susceptible organism. On to RWRLFKRIGIGRLLKRGLR [GK-3], for which the MIC in experiment [1] is 1.6 µg/mL; in [2], 1.2 µg/mL; in experiment [3], 1.8 µg/mL; in experiment [4], 2 µg/mL; in experiment [5], 12 µg/mL; in [6] it was 0.8 µg/mL. Besides, the MIC was found to be 0.5 µg/mL in experiment [7]; 11 µg/mL in experiment [8]; 3 µg/mL in [9]; 5 µg/mL in experiment [11]; 6 µg/mL in experiment [12]. The “inhibitory activity against tumor cells (IC50)” value (from here on “inhibitory activity”) in experiment [10] worked out at 31 µg/mL; in experiment [13] it was 21 µg/mL; in experiment [15], 13 µg/mL; in experiment [16], 25 µg/mL. Besides, the “IC50 against normal fibroblasts” value in experiment [14] was more than 100 µg/mL.
`CN[C@H](CC(C)C)C(=O)N[C@H]1C(=O)N[C@@H](CC(N)=O)C(=O)N[C@H]2C(=O)N[C@H]3C(=O)N[C@H](C(=O)N[C@H](C(=O)O)c4cc(O)cc(O)c4-c4cc3ccc4O)[C@H](O)c3ccc(c(Cl)c3)Oc3cc2cc(c3O[C@@H]2O[C@H](CO)[C@@H](O)[C@H](O)[C@H]2O[C@H]2C[C@](C)(N)[C@H](O)[C@H](C)O2)Oc2ccc(cc2Cl)[C@H]1O` [Vancomycin]: the Inhibitory rate in experiment [17] (0.5 mg/kg s.c.) stood at 0%; in [17] (1.0 mg/kg s.c.), 40%; in experiment [17] (2.0 mg/kg s.c.) it was 80%; in [17] (4.0 mg/kg s.c.) it was 100%; in experiment [17] (8.0 mg/kg s.c.), 100%. The “Effectiveness against S. aureus infection (protection of infected mice)” value in experiment [17] (dosage of 4.5 mg/kg) is given as 100%.
Consider KWKLFKKIGIGRLLKRGLRKLLK [GK-1], for which the MIC in experiment [1] stood at 1 µg/mL; in [2] it was 1.0 µg/mL; in experiment [3], 10 µg/mL; in experiment [4] it was 2 µg/mL; in experiment [5], 14 µg/mL; in experiment [6], 0.5 µg/mL. In addition, the MIC came to 0.4 µg/mL in experiment [7]; 8 µg/mL in [8]; 2 µg/mL in experiment [9]; 4 µg/mL in [11]; 4 µg/mL in experiment [12]. In addition, the “inhibitory activity” value is 35 µg/mL in experiment [10], 38 µg/mL in [13], 45 µg/mL in experiment [15] and 52 µg/mL in [16]. Further, in experiment [14], the “IC50 against normal fibroblasts” value is more than 100 µg/mL.
Turning to KWKLFKKIGIGRLLRRLLRRLLR [GK-2], the MIC turned out to be 0.5 µg/mL in experiment [1]; 0.8 µg/mL in experiment [2]; 12 µg/mL in [3]; 0.8 µg/mL in experiment [4]; 12 µg/mL in [5]; 1 µg/mL in experiment [6]. The MIC stood at 0.2 µg/mL in experiment [7]; 10 µg/mL in experiment [8]; 4 µg/mL in [9]; 4 µg/mL in experiment [11]; 1 µg/mL in [12]. Also, the “inhibitory activity” value is 32 µg/mL in [10], 44 µg/mL in experiment [13], 56 µg/mL in experiment [15] and 47 µg/mL in [16]. In addition, the “IC50 against normal fibroblasts” value in [14] was more than 100 µg/mL.
For “RWKLFKKIEKVGRNVRDGLIKAGPAIAVIGQAKSL [cecropin A1, reference compound]”, the MIC is 20 µg/mL in [1]; 50 µg/mL in experiment [2]; 18 µg/mL in [3]; 16 µg/mL in [4]; 50 µg/mL in experiment [5]; 50 µg/mL in experiment [6]. Moreover, the MIC in experiment [7] is 16 µg/mL; in experiment [8], 50 µg/mL; in experiment [9], 30 µg/mL; in experiment [11], 12 µg/mL; in [12] it was 12 µg/mL.
With `CC[C@H](C)[C@@H]1NC(=O)CNC(=O)[C@H]([C@@H](C)CC)NC(=O)[C@H](CCCCN)NC(=O)[C@H](CCCCN)NC(=O)[C@H](Cc2ccccc2)NC(=O)[C@H](CC(C)C)NC(=O)[C@H](CCCCN)NC(=O)[C@H](Cc2c[nH]c3ccccc23)NC(=O)[C@H](CCCCN)NC(=O)[C@H](CCCCN)NC(=O)[C@H](CC(C)C)NC(=O)[C@H](CC(C)C)NC(=O)[C@H](CCCCN)NC(=O)[C@H](CCCNC(=N)N)NC(=O)[C@H](CC(C)C)NC(=O)CNC(=O)[C@H](CCCNC(=N)N)NC(=O)[C@H](CCCCN)NC(=O)[C@H](CC(C)C)NC(=O)[C@H](CC(C)C)NC(=O)[C@H](CCCNC(=N)N)NC(=O)CNC1=O` [GK-20] (cyclo(KWKLFKKIGIGRLLKRGLRKLLK); ring closure inferred), the MIC worked out at 8 µg/mL (≈ 2.88 µM) in [1]; 2 µg/mL (≈ 0.721 µM) in [2]; 10 µg/mL (≈ 3.6 µM) in [3]; 10 µg/mL (≈ 3.6 µM) in experiment [4]; 20 µg/mL (≈ 7.21 µM) in [5]; 6 µg/mL (≈ 2.16 µM) in [6]. In addition, the MIC came out at 0.8 µg/mL (≈ 0.288 µM) in experiment [7], 18 µg/mL (≈ 6.49 µM) in experiment [8] and 4 µg/mL (≈ 1.44 µM) in experiment [9].
On to RFKLFKKIPRLLRRGLRKVLK [GK-19], for which the MIC was found to be 2 µg/mL in experiment [1]; 4 µg/mL in experiment [2]; 4 µg/mL in experiment [3]; 2 µg/mL in experiment [4]; 12 µg/mL in experiment [5]; 10 µg/mL in experiment [6]. Further, the MIC in experiment [7] was 1.0 µg/mL; in experiment [8], 16 µg/mL; in experiment [9], 10 µg/mL; in experiment [11], 2 µg/mL; in experiment [12] it was 1 µg/mL.

These data come from US7629438B2, “Group of synthetic antimicrobial peptides” (priority 2002, dated 2009).
